# Measured values reported in ChEMBL document CHEMBL5346971, “Discovery of the First Irreversible HDAC6 Isoform Selective Inhibitor with Potent Anti-Multiple Myeloma Activity” (J Med Chem, 2023).
# Active and inactive are the calls of the source. The rule behind the calls is not given here.
# Experiments:
# Histone deacetylase 2 = Histone deacetylase 2 (Homo sapiens, UniProt Q92769); assay: Inhibition of C-terminal FLAG-tagged human full length recombinant HDAC2 (1 to 488 residues) expressed in Sf9 cells using Boc-Lys(acetyI)-AMC as substrate preincubated with enzyme for 1 hr followed by substrate addition and measured after 30 mins by fluorescence based analysis
# [1] = molecular target: T1, Protein deacetylase HDAC6 (Homo sapiens) (UniProt Q9UBN7); assay: Irreversible inhibition of HDAC6 in human A549 cells assessed as acetyl alpha-tubulin level at 0.4 uM incubated for 5 hrs followed by drug wash-out for 24 hrs by western blot analysis relative to control; format: cell-based
# T1 sequence (whole entry): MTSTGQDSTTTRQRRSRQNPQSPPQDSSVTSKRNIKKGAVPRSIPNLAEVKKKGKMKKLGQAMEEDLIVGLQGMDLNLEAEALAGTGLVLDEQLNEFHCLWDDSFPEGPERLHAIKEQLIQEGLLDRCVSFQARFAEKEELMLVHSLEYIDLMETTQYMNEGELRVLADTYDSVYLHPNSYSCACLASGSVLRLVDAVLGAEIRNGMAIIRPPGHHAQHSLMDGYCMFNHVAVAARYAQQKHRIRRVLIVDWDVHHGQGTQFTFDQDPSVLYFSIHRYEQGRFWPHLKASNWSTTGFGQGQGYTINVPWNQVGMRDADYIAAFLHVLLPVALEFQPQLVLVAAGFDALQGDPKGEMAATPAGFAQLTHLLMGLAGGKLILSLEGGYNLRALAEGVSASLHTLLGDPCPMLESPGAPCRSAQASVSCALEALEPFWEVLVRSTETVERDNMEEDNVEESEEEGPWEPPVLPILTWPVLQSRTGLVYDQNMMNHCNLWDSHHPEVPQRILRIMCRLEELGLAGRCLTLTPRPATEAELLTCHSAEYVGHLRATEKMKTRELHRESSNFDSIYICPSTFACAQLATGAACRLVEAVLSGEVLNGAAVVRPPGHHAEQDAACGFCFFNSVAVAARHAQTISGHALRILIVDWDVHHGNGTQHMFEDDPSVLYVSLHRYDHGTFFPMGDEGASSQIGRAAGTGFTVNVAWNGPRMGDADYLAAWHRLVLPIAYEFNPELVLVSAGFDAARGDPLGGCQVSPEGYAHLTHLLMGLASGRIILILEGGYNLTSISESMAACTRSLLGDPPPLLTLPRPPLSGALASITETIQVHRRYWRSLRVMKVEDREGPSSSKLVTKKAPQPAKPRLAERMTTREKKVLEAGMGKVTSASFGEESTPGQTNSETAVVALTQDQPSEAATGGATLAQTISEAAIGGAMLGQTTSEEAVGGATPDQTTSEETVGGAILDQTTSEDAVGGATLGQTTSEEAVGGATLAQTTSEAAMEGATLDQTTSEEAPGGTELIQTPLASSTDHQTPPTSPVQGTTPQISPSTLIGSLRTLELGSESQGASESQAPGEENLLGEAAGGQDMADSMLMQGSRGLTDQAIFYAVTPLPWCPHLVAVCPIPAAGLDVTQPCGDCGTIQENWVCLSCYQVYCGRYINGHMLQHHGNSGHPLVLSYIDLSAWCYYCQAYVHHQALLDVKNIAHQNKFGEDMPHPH
# [2] = Effect on HDAC6 protein expression in human A549 cells assessed as change in HDAC6 protein expression at 0.4 uM incubated for 5 hrs followed by drug wash-out for 24 hrs by western blot analysis relative to control; format: functional
# Histone deacetylase 7 = molecular target: T2, Histone deacetylase 7 (Homo sapiens, UniProt Q8WUI4); assay: Inhibition of N-terminal GST-tagged human HDAC7 (518 to end residues) expressed in baculovirus-infected Sf9 cells using Boc-Lys(trifluoroacety1)-AMC as substrate preincubated with enzyme for 1 hr followed by substrate addition and measured after 30 mins by fluorescence based analysis
# T2 sequence (Q8WUI4 whole entry): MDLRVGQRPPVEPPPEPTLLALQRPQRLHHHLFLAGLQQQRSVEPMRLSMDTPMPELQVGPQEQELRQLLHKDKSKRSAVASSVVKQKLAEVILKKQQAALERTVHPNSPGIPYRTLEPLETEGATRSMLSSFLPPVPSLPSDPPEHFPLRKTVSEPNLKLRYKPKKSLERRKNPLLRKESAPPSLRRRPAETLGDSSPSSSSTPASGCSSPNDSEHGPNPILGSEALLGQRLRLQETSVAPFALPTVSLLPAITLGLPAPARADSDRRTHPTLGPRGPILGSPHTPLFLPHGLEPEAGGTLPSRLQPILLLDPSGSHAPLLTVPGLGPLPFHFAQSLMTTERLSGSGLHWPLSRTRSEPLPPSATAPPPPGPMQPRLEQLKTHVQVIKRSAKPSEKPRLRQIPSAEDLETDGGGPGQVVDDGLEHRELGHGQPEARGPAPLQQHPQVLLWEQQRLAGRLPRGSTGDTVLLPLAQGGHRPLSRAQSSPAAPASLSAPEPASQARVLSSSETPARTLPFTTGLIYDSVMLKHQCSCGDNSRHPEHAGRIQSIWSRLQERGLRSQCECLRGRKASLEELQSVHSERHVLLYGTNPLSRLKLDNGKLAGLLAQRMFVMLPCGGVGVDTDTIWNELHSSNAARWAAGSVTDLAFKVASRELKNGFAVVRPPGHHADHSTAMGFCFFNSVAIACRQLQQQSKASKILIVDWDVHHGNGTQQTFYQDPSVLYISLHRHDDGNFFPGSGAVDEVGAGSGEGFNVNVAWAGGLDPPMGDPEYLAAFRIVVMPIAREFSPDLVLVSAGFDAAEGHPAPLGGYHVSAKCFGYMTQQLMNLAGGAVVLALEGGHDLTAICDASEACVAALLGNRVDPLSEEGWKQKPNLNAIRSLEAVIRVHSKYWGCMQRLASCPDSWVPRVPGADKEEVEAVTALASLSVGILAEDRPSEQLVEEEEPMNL
# RPMI-8226 [3] = assay: Antiproliferative activity against human RPMI-8226 cells assessed as inhibition of cell proliferation incubated for 48 hrs by CCK8 assay; format: functional, cell-based; conditions: RPMI-8226, 48 h
# RPMI-8226 [4] = assay: Induction of apoptosis in human RPMI-8226 cells assessed as proportion of late apoptotic cells at 0.5 uM incubated for 24 hrs by AnnexinV-FITC/PI staining based flow cytometry (reference value: 4.18%); format: functional, cell-based
# RPMI-8226 [5] = assay: Induction of cell cycle arrest in human RPMI-8226 cells assessed as proportion of cells at S phase at 0.1 uM incubated for 24 hrs by PI staining based flow cytometry (reference value: 46.7%); format: functional
# RPMI-8226 [6] = assay: Induction of cell cycle arrest in human RPMI-8226 cells assessed as proportion of cells at G2/M phase at 0.1 uM incubated for 24 hrs by PI staining based flow cytometry (reference value: 19.8%); format: functional
# [7] = Half-life in rat liver microsomes in presence of NADPH by LC-MS/MS analysis; format: ADME, Microsome
# [8] = molecular target: T1, Protein deacetylase HDAC6 (Homo sapiens); conditions: A549, dose 80.0 nM, time 5.0 hrs
# Chain of Histone deacetylase 2 (Q92769 whole entry, the tested form may be a part): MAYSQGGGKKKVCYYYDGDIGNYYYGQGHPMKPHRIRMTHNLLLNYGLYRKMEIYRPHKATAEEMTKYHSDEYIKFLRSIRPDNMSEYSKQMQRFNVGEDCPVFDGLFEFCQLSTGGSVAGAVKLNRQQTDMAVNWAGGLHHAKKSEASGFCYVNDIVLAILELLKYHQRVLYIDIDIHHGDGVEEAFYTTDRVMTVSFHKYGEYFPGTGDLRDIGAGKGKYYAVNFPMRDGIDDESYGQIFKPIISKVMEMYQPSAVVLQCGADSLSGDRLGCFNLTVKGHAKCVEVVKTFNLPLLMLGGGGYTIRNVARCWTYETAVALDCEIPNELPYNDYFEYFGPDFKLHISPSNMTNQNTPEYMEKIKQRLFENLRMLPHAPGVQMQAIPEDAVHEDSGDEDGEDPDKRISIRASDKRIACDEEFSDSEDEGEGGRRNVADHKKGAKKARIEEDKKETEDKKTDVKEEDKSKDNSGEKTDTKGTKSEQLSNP
smiles,measurement,setting,value
O=C(NO)c1ccc(COc2no[n+]([O-])c2S(=O)(=O)c2ccccc2)cc1,IC50,Histone deacetylase 2,1500 nM
same,fold change (FC),[1],4.3
same,fold change (FC),[2],1.3
same,IC50,Histone deacetylase 7,> 40000 nM
same,IC50,RPMI-8226 [3],170 nM
same,Activity,RPMI-8226 [4],Active
same,Activity,RPMI-8226 [5],49.8%
same,Activity,RPMI-8226 [6],21.4%
same,half-life,[7],9.2 min
same,inhibition,[8],Active
